The test system of one data set is VCAM-1. As to the kind of experiment: Inhibition of cytokine-induced VCAM-1 expression in proliferating HUVEC (cell-surface ELISA). In kind it is cell-based. The conditions noted are these: Homo sapiens, coincubated with tumor necrosis factor-alpha and compound for 20 hr, average of two runs. The protocol:
Plate proliferating human umbilical vein endothelial cells (HUVEC) or human aortic smooth muscle cells (HASMC) from Clonetics (San Diego, CA) onto 96-well plates in 100 µL medium per well at 20,000 cells per cm^2. Maintain the cultures in growth medium (EGM or SMGM2, Clonetics, San Diego, CA) for two days prior to addition of cytokines or drugs. Add cytokines plus or minus compounds for 20 to 24 hours prior to analysis for adhesion molecule levels. Add tumor necrosis factor (Genzyme, Cambridge, MA) to cultures at 500-1000 units/mL to stimulate adhesion molecule expression. Add interleukin-4 (GIBCO-BRL, Gaithersburg, MD) to cultures at 100-200 pg/mL to stimulate VCAM-1 expression. […] Remove the culture medium, and wash the monolayers twice with Hanks buffered saline solution (HBSS) at room temperature. Add the primary antibody (anti-human VCAM-1 from Upstate Biotechnology, Inc., Lake Placid, NY or anti-human ICAM-1 from Immunotech, Inc., Westbrook, ME) to each well (1 µg/mL in HBSS plus 5% newborn calf serum, GIBCO-BRL, Gaithersburg, MD) and incubate at 37°C for 1 hr. Wash the wells twice with HBSS, then add 100 µL of a 1/1000 dilution of goat anti-mouse IgG conjugated to horse radish peroxidase (BioRad, Hercules, CA) in HBSS plus 5% newborn calf serum to each well and incubated for 1 hr at 37°C. […] Measure absorbance at 450 nm with a plate reader. […]

For the next data set, the system named is ICAM-1. The data set can be described thus: Inhibition of cytokine-induced ICAM-1 expression in proliferating HUVEC (cell-surface ELISA). Type of data set: cell-based, human. The protocol:
Plate proliferating human umbilical vein endothelial cells (HUVEC) or human aortic smooth muscle cells (HASMC) from Clonetics (San Diego, CA) onto 96-well plates in 100 µL medium per well at 20,000 cells per cm^2. Maintain the cultures in growth medium (EGM or SMGM2, Clonetics, San Diego, CA) for two days prior to addition of cytokines or drugs. Add cytokines plus or minus compounds for 20 to 24 hours prior to analysis for adhesion molecule levels. Add tumor necrosis factor (Genzyme, Cambridge, MA) to cultures at 500-1000 units/mL to stimulate adhesion molecule expression. Add interleukin-4 (GIBCO-BRL, Gaithersburg, MD) to cultures at 100-200 pg/mL to stimulate VCAM-1 expression. […] Remove the culture medium, and wash the monolayers twice with Hanks buffered saline solution (HBSS) at room temperature. Add the primary antibody (anti-human VCAM-1 from Upstate Biotechnology, Inc., Lake Placid, NY or anti-human ICAM-1 from Immunotech, Inc., Westbrook, ME) to each well (1 µg/mL in HBSS plus 5% newborn calf serum, GIBCO-BRL, Gaithersburg, MD) and incubate at 37°C for 1 hr. Wash the wells twice with HBSS, then add 100 µL of a 1/1000 dilution of goat anti-mouse IgG conjugated to horse radish peroxidase (BioRad, Hercules, CA) in HBSS plus 5% newborn calf serum to each well and incubated for 1 hr at 37°C. Wash the wells three times with HBSS, then add 100 µL of TMB substrate (BioRad, Hercules, CA) to each well. Stop the reaction after blue color develops by addition of 50 µL of 1 N H2SO4. Measure absorbance at 450 nm with a plate reader.
The IC50 value is defined as the drug concentration that inhibits the cytokine-induced adhesion molecule expression by 50%. Maximal values for adhesion molecule expression in cytokine-induced cultures was subtracted from the basal level of adhesion molecule expression (minus cytokines) in the cultures to detoermine the level of induction. Each drug concentration was tested in quadruplicate wells. […]

Data set [1] is described as follows: In vivo screening in rats: serum clinical chemistries. Also noted: species or system Male Sprague-Dawley rats. The conditions noted are these: percent of control, diet 0.3% for 4 days, N = 5 rats; for ALT: alanine aminotransferase in serum; for ALP: alkaline phosphatase in serum; for AST: aspartate aminotransferase in serum; for GLUC: glucose in serum; for CHOL: total cholesterol in serum; for TRIG: triglycerides in serum. The source says:
(§1) A typical experiment consists of 4-6 groups of rats (N = 5 per group) with 1 group being a control which receives no MDL compound and the other groups being treated with 0.3% MDL compound. Some of the compounds are either repeated at 0.3% or evaluated again at the lower dose of 0.1 %. House Male Sprague-Dawley rats, 50-100 g, (Harlan Laboratories, Indianapolis, IN) in groups of 5, feeding ad libitum water and Purina Rodent chow (#5002) with or without MDL compound as a dietary admixture for 4 days. Make dietary admixtures (0.3%) by mixing 1.2 grams of an MDL compound with 400 grams of Purina rodent chow (#5002). Mix the MDL compound with approximately 50 grams of food using a mortar and pestle. This is added to the remainder of the food and mixed for 3 hours on a rotary mixer. In the morning of day 5, anesthetize non-fasted rats with carbon dioxide, and collect blood by cardiac puncture. Sacrifice rats by cervical dislocation. Record body weights and liver weights in grams. Record food consumption as grams • day^-1 • rat^-1. Deaths are recorded as mortality. Use aliquots of fresh serum for clinical chemistries, thiobarbituric acid reactive substances (TBARS) and conjugated diene measurements. Freeze aliquots of serum (∼ 0.5mL) and whole livers at -20°C for compound and metabolite concentration determination at a later time.
Allow blood to clot at room temperature for 30 minutes. Obtain serum after centrifugation for 10 min at 4°C at 3000 rpm in a Beckman J-6M/E centrifuge with a JS-4.2 rotor. Analyze fresh serum by a COBAS MIRA S autoanalyzer (Roche Diagnostics) using Roche diagnostic reagents for the following clinical chemistry measurements: alkaline phosphatase (ALP, kit # 44553), alanine transaminase (ALT, kit # 42375), aspartate aminotransferase (AST, kit # 42381), total cholesterol (CHOL, kit # 44334), triglyceride (TG, kit # 44120), and glucose (GLU, kit # 44558). Calculate ALP, ALT, and AST as units/L. Calculate cholesterol, triglycerides, and glucose as mg/dL.

Data set [2] deals with serum lipids. The data set can be described thus: In vivo screening in rats: TBARS assay on serum (CuSO4-initiated oxidation). The conditions noted are these: thiobarbituric acid reactive substances (nmoles MDA) in serum, percent of control; diet 0.3% for 4 days, N = 5 rats. Set-up: species or system Male Sprague-Dawley rats.
Source text: as §1, with “Sacrifice rats by cervical dislocation. Record body weights and liver weights in grams. Record food consumption as grams • day^-1 • rat^-1.” left out, “Use aliquots of fresh serum for clinical chemistries, thiobarbituric acid reactive substances (TBARS) and conjugated diene measurements. Freeze aliquots of serum (∼ 0.5mL) and whole livers at -20°C for compound and metabolite concentration determination at a later time.” left out
In this assay the oxidation of serum lipids is initiated with CuSO4, resulting in the formation of aldehydes, such as malondialdehyde (MDA). Upon incubation with thiobarbituric acid, the absorbance of the aldehydes can be detected at 530-540 nm. […] Measure absorbances at 540 nm using a Biotek model EL311 microplate reader. The nmoles of MDA produced are calculated from a standard curve of 0 to 10 nmoles of MDA prepared from malonaldehyde bis(dimethylacetal). […]

For data set [3], the system named is serum lipids. The data set can be described thus: In vivo screening in rats: conjugated diene lag phase of pooled serum. Also noted: species or system Male Sprague-Dawley rats. Particulars: mean of 2 determinations of pooled serum (N = 5), not normalized, Control = 61 min., diet 0.3% for 4 days.
Source text: as §1, with “Use aliquots of fresh serum for clinical chemistries, thiobarbituric acid reactive substances (TBARS) and conjugated diene measurements. Freeze aliquots of serum (∼ 0.5mL) and whole livers at -20°C for compound and metabolite concentration determination at a later time.” left out
Conjugated diene lag phase is another indicator of the oxidation of lipids. […] Measure the absorbances of all cuvettes and set the instrument baseline to zero using the lowest absorbing sample. […] Record the absorbance of each cuvette at 2 min intervals for a period of 840 min. […]

A short description of data set [4]: In vivo screening in rats: animal parameters (food, body weight, liver weight, mortality). Also noted: species or system Male Sprague-Dawley rats. Particulars: diet 0.3% for 4 days, N = 5 rats; for mortality: deaths per group; for food: grams eaten per day per rat; for food / lw/bw / body wt.: percent of control; for lw/bw: liver weight/body weight; for body wt.: weight in grams.
Source text: as §1

The conditions of data set [5]: male, Sprague-Dawley, rat, in vivo.
Source text: as §1
Determine serum and liver concentrations of parent compound and the metabolites, bisphenol and diphenoquinone, by reverse phase HPLC using a Waters 990 Powerline system. Homegenize livers (1 gram samples) with 5.0mL PBS, pH 7.4, using a Polytron tissue homogenizer at setting 5 for 20-30 seconds. Extract serum or liver homogenates as follows: add 100µL of either serum or homogenate to 2.0mL diethyl ether: ethanol (3:1) while vortexing the tube. Cap the sample tubes and centrifuge for 10 min at 5°C at 3500 rpm in a Beckman GPKR centrifuge with a GH 3.7 rotor. Transfer the supematants to clean tubes and dry under N2. Reconstitute samples with 200µL of acetonitrile : hexane: 0.1 M ammonium acetate (90: 6.5 : 3.5, by vol.). Then, inject 100µL onto a Waters Deltapak C18-300 Å column, and elute with an 83% acetonitrile : 17% water mobile phase at a flow rate of 1.5mL/min. Record absorbances at the wavelengths of 240, 254, and 420nm. Calculate compound concentrations from known quantities of authentic parent compounds after correction for recovery. […]. Calculate concentrations as µg/mL of serum and µg/g of liver.

Where two headings read alike, the source gives them in different places. Where only a bound is given, the exact number is not on record here.

Regarding `CC(C)(C)c1cc(OC[Si](C)(C)c2ccco2)cc(C(C)(C)C)c1O` [MDL 106,939, Phenol, 2,6-bis(1,1-dimethylethyl)-4-[(2-furanyldimethylsilyl)methoxy]-], in the data set with VCAM-1, the IC50 worked out at 13 µM. In addition, the IC50 in the data set on ICAM-1 (Homo sapiens, coincubated with tumor necrosis factor-alpha and compound for 20 hr, average of two runs, except MDL 107,695 where both values are shown, read-out: ICAM-1 IC50) is 33 µM. In data set [1], this molecule displayed an ALT of 92%, an ALP of 123%, an AST of 106% and a GLUC of 83%. In data set [1], this molecule gave a CHOL of 120% and a TRIG of 108%. The TBARS in the data set on serum lipids [2] is on record as 64%. The “CONJ. DIENE” value in the data set on serum lipids [3] amounted to 391 min. For the same molecule, in data set [4], the mortality was 0%, the food turned out to be 88%, the lw/bw is reported as 130% and the body wt. was 92%. Besides, in data set [5], the “Liver Parent” value came out at 97.7 µg/g liver and the “Serum Parent” value was 3.3 µg/mL of serum.

In the case of `CC(C)(C)c1cc(OC[Si](C)(C)c2cccs2)cc(C(C)(C)C)c1O` [MDL 107,965, Phenol, 2,6-bis(1,1-dimethylethyl)-4-[(dimethyl-2-thienylsilyl)methoxy]-], the IC50 in the data set on ICAM-1 (Homo sapiens, 20 h, read-out: ICAM-1 IC50, HUVEC, coincubated with tumor necrosis factor-alpha and compound for 20 hr, average of two runs, except MDL 107,695 where both values are shown) was determined as 72 µM. The IC50 in the data set on ICAM-1 (read-out: ICAM-1 IC50, coincubated with tumor necrosis factor-alpha and compound for 20 hr, average of two runs, except MDL 107,695 where both values are shown) was above 100 µM. For the same molecule, in data set [1], the ALT is reported as 96%, the ALP is 137%, the AST stood at 89% and the GLUC is on record as 86%. In data set [1], this molecule registered a CHOL of 121% and a TRIG of 90%. The molecule also had a TBARS in the data set with serum lipids [2] of 57%. In addition, the “CONJ. DIENE” value in the data set with serum lipids [3] came to 273 min. In data set [4], this molecule gave a mortality of 0%, a food of 84%, a lw/bw of 118% and a body wt. of 84%. Moreover, in data set [5], the “Liver Parent” value stood at 82 µg/g liver and the “Serum Parent” value is on record as 12.6 µg/mL of serum.

The values above are taken from patent EP0998477B1, “Alkyl-4-silylheterocyclic phenols and thiophenols as antioxidant agents” (priority 1997, dated 1998).
